Reference: paper PMC7522982, “PKIS deep dive yields a chemical starting point for dark kinases and a cell active BRSK2 inhibitor” (Scientific Reports, 2020)

Assays:
PIM2 = PIM2 (Homo sapiens, UniProt Q9P1W9); parameters: purchased Eurofins DiscoverX Corporation; method as in earlier work; conditions: cited from earlier work
AURKB = AURKB (Homo sapiens, UniProt Q96GD4); assay: DiscoverX scanMAX competition binding assay; parameters: purchased Eurofins DiscoverX (scanMAX) / Eurofins enzymatic assays
AURKB, sequence (Q96GD4 whole entry): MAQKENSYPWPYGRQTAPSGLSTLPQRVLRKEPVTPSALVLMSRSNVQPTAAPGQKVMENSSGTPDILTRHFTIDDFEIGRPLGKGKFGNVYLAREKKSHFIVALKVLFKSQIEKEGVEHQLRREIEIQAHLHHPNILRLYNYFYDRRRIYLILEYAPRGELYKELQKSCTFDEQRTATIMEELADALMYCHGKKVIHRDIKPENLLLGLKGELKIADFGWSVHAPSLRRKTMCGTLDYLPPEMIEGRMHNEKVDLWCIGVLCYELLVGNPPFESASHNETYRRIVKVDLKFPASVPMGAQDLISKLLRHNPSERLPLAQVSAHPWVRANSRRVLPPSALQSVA
Description: (§1) Based on its narrow profile when tested in the combined Nanosyn and TSA panels, GW296115 was included in the recently released Kinase Chemogenomic Set (KCGS)[15]. All of the data presented in the Introduction section was collected prior to the inclusion of GW296115 in KCGS and everything that follows has been subsequently generated. Since its inclusion in PKIS and more recently KCGS, we have carried out a broader round of screening at DiscoverX. This profiling data has not been previously released and is reported here for the first time. GW296115 was profiled against 403 wild type human kinases at 1 μM using the DiscoverX scanMAX screening platform, which employs an active site-directed competition binding assay to quantitatively measure interactions between test compounds and kinases, [16]. GW296115 inhibited 25 kinases > 90% at 1 μM, resulting in a selectivity index (S10) of 0.062 at 1 μM (Table S2, Fig. 1C)[17].
(§2) The scanMAX assays were performed at Eurofins DiscoverX Corporation as previously described.

CHEK2 = CHEK2 (Homo sapiens, UniProt O96017); assay: DiscoverX scanMAX competition binding assay; parameters: purchased Eurofins DiscoverX (scanMAX) / Eurofins enzymatic assays
CHEK2, sequence (O96017 whole entry): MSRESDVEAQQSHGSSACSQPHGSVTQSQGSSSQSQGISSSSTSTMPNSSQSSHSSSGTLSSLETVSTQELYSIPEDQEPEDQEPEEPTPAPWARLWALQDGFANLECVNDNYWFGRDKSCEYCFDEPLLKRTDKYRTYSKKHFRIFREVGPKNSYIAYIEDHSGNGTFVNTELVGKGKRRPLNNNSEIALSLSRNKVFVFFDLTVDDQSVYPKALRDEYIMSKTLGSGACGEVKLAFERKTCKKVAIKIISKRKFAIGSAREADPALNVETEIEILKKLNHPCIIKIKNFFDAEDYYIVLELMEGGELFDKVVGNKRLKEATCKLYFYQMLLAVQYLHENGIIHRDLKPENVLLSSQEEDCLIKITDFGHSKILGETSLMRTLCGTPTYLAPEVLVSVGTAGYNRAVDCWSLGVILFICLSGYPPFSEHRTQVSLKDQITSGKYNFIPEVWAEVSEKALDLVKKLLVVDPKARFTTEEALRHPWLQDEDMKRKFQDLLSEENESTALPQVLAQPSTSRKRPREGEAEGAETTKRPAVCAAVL
Description: as §1, §2

DAPK2 = DAPK2 (Homo sapiens, UniProt Q9UIK4); assay: DiscoverX scanMAX competition binding assay; parameters: purchased Eurofins DiscoverX (scanMAX) / Eurofins enzymatic assays
DAPK2, sequence (Q9UIK4 whole entry): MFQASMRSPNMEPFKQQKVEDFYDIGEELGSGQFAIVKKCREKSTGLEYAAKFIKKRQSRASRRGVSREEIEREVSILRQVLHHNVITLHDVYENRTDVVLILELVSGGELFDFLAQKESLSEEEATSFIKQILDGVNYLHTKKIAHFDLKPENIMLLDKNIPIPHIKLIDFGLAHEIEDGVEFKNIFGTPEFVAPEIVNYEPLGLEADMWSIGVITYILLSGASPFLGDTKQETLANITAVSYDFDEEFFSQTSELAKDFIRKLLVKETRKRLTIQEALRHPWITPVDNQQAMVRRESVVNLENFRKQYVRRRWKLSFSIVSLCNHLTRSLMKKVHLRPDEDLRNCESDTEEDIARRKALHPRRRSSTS
Description: as §1, §2

MAP3K11/MLK3 = MAP3K11/MLK3 (Homo sapiens, UniProt Q16584); assay: DiscoverX scanMAX competition binding assay; parameters: purchased Eurofins DiscoverX (scanMAX) / Eurofins enzymatic assays
Description: as §1, §2

MAP3K9/MLK1 = MAP3K9/MLK1 (Homo sapiens, UniProt P80192); assay: DiscoverX scanMAX competition binding assay; parameters: purchased Eurofins DiscoverX (scanMAX) / Eurofins enzymatic assays
Description: as §1, §2

MAP4K4/HGK = MAP4K4/HGK (Homo sapiens, UniProt O95819); assay: DiscoverX scanMAX competition binding assay; parameters: purchased Eurofins DiscoverX (scanMAX) / Eurofins enzymatic assays
Description: as §1, §2

MYLK/MLCK/smMLCK = MYLK/MLCK/smMLCK (Homo sapiens, UniProt Q15746); assay: DiscoverX scanMAX competition binding assay; parameters: purchased Eurofins DiscoverX (scanMAX) / Eurofins enzymatic assays
MYLK/MLCK/smMLCK, sequence (Q15746 whole entry): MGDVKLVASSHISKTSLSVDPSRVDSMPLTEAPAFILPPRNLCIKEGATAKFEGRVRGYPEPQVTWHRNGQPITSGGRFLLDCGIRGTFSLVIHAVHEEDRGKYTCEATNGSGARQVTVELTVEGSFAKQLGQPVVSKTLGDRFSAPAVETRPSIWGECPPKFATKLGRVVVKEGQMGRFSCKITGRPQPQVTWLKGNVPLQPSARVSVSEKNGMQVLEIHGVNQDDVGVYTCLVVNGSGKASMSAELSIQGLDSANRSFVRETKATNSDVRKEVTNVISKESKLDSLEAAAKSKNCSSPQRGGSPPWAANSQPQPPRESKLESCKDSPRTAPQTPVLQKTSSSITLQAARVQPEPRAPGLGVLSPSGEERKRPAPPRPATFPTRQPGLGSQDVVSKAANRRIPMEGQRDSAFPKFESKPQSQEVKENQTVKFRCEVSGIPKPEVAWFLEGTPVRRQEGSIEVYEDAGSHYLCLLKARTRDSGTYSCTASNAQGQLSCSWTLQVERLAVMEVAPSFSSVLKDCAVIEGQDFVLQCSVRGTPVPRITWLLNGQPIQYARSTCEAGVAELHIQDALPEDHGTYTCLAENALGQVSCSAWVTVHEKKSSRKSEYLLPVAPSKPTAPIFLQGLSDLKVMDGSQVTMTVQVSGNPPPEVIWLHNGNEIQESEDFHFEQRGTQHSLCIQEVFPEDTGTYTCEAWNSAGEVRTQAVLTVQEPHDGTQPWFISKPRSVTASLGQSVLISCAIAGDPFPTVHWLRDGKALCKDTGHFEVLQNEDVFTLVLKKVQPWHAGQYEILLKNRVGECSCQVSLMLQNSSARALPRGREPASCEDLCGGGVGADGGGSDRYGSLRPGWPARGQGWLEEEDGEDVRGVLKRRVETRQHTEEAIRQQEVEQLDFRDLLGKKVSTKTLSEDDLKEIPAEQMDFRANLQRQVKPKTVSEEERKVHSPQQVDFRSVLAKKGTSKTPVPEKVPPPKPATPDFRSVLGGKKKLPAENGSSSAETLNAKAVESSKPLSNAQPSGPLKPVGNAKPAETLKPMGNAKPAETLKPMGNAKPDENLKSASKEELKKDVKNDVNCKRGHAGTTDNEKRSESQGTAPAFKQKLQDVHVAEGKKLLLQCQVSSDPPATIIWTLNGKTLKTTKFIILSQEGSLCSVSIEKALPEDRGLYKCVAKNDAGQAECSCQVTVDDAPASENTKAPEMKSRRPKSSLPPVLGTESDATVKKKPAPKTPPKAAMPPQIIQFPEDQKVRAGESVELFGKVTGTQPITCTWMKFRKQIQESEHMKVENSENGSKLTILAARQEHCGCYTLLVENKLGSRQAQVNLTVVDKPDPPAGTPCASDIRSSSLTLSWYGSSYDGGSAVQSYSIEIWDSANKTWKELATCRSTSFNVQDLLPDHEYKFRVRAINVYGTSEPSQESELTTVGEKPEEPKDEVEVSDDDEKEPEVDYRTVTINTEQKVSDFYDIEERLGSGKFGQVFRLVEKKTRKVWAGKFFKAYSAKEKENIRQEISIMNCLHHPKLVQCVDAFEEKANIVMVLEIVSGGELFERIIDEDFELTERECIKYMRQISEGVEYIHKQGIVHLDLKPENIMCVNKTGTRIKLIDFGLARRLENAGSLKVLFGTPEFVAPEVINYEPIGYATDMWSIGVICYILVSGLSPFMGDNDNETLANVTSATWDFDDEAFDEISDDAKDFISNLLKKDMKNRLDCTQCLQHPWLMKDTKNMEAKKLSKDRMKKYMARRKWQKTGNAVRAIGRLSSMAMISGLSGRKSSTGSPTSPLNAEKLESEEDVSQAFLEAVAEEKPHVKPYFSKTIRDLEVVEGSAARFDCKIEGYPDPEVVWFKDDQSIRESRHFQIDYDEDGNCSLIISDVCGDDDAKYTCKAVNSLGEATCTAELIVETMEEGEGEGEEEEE
Description: as §1, §2

PIM3 = PIM3 (Homo sapiens, UniProt Q86V86); assay: DiscoverX scanMAX competition binding assay; parameters: purchased Eurofins DiscoverX (scanMAX) / Eurofins enzymatic assays
Description: as §1, §2

RPS6KA6/RSK4 = RPS6KA6/RSK4 (Homo sapiens, UniProt Q9UK32); assay: DiscoverX scanMAX competition binding assay; parameters: purchased Eurofins DiscoverX (scanMAX) / Eurofins enzymatic assays
RPS6KA6/RSK4, sequence (Q9UK32 whole entry): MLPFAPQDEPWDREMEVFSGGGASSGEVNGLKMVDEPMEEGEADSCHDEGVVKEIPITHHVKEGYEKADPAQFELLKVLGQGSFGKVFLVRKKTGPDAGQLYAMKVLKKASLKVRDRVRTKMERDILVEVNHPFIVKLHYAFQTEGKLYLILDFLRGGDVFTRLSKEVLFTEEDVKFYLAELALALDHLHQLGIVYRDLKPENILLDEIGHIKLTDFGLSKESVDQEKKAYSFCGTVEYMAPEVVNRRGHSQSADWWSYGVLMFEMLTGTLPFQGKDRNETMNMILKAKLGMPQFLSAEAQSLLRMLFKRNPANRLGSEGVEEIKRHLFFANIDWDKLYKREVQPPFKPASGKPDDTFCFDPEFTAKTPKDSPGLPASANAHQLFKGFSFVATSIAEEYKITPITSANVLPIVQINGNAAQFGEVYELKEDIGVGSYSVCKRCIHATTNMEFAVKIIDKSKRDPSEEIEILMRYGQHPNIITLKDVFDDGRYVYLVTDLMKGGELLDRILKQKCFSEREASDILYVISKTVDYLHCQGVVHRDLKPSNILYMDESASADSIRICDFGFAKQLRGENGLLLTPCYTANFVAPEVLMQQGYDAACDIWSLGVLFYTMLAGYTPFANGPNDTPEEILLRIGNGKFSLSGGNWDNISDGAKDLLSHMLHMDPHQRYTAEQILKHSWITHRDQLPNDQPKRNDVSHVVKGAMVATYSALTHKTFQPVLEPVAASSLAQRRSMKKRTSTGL
Description: as §1, §2

STK17B/DRAK2 = target: T1, STK17B/DRAK2 (Homo sapiens, UniProt O94768); assay: DiscoverX scanMAX competition binding assay; parameters: purchased Eurofins DiscoverX (scanMAX) / Eurofins enzymatic assays
T1 sequence (O94768 1-372): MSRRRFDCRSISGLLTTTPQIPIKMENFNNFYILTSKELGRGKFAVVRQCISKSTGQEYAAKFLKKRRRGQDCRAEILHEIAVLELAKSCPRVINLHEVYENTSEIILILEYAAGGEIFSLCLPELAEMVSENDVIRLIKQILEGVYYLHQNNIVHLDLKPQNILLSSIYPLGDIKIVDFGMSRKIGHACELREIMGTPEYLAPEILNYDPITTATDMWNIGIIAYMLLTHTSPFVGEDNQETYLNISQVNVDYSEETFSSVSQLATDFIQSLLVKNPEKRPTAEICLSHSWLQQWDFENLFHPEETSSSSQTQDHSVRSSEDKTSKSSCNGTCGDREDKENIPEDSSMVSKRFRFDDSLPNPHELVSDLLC
Description: as §1, §2

PIM2, sequence (Q9P1W9 whole entry): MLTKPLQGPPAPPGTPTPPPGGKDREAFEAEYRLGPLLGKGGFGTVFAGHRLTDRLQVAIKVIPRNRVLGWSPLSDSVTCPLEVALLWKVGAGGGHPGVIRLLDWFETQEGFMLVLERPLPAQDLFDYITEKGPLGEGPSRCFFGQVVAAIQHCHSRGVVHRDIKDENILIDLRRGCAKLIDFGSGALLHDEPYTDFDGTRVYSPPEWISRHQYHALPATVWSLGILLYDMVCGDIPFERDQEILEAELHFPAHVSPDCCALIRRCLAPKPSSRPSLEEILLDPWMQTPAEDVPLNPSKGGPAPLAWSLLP

Which “Nanosyn % Inhibition at 1 μM” value (PIM2) does the source give for `COc1ccc2[nH]c3c4[nH]c5ccc(OC)cc5c4c4c(c3c2c1)C(=O)NC4=O` [GW296115] here?
Its value is 68%.

What about the inhibition at 1 µM (AURKB) of the same compound?
The inhibition at 1 µM was 90%.

What about the inhibition at 1 µM (CHEK2) of the same compound?
The inhibition at 1 µM was 92.5%.

And the inhibition at 1 µM (DAPK2)?
Its inhibition at 1 µM is 96.7%.

What about the inhibition at 1 µM (MAP3K11/MLK3) of the same compound?
The inhibition at 1 µM was 92.4%.

And the inhibition at 1 µM (MAP3K9/MLK1)?
Its inhibition at 1 µM is 95.1%.

And the inhibition at 1 µM (MAP4K4/HGK)?
Its inhibition at 1 µM is 91.4%.

And the inhibition at 1 µM (MYLK/MLCK/smMLCK)?
Its inhibition at 1 µM is 95.4%.

And the inhibition at 1 µM (PIM3)?
The inhibition at 1 µM was 94.4%.

And the inhibition at 1 µM (RPS6KA6/RSK4)?
Its inhibition at 1 µM is 94.7%.

What about the inhibition at 1 µM (STK17B/DRAK2) of the same compound?
Its inhibition at 1 µM is 100%.
